Assay results: US20050197338A1, “Substituted pyrazole urea compounds for the treatment of inflammation” (priority 2003, published 2005)

biological target: T1, human IKK-2 (rhIKK-2 homodimer) (Homo sapiens, UniProt O14920); experiment: IKK-2 Resin Enzyme Assay (Human IKK-2 Enzyme Assay); format: biochemical; conditions: human IKK-2, resin enzyme assay; read-out: IC50 (μM) hIKK-2
T1 construct: FLAG (DYKDDDDKD) (C); made in house; host or cells: insect cells (baculovirus, pFastBac)
T1 sequence (O14920 1-756): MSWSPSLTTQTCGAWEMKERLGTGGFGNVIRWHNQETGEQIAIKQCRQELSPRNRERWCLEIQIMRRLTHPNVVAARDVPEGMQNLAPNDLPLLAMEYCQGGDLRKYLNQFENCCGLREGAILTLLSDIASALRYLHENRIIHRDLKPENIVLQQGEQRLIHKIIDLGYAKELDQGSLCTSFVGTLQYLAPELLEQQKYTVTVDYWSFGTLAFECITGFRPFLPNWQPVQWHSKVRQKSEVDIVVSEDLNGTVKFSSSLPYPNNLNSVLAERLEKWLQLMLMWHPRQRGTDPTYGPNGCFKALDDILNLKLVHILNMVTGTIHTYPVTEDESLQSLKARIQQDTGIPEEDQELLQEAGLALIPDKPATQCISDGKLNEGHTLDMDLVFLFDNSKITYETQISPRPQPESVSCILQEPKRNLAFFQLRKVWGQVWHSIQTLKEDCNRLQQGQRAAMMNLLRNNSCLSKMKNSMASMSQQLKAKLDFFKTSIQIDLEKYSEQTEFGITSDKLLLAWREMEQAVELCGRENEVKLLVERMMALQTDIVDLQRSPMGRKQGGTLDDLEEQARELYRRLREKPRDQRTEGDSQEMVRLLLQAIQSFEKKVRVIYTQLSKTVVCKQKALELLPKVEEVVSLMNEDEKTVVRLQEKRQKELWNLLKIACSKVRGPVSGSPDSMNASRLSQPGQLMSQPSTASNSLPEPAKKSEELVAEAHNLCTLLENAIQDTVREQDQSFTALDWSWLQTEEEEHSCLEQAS
How it was run: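 C-terminally FLAG-tagged human IKK-2 homodimer, baculovirus-expressed in insect cells and anti-FLAG purified. Reaction mix: 5 μM biotinylated IκBα peptide (Ser32/Ser36 region), 1 μM ATP with [γ-33P]ATP, 2 mM MgCl2, 2 mM MnCl2, 10 mM NaF, 1 mM DTT, 25 mM HEPES pH 7.6. Incubated 30 min at 25 °C; IC50 derived.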

IC50 [µM] | SMILES
0.07 | CNC(=O)COc1cccc(-c2ccc(-n3cc(NC(N)=O)c(C(N)=O)n3)cc2)c1 [Example 383, 4-[(aminocarbonyl)amino]-1-{3′-[2-(methylamino)-2-oxoethoxy]-1,1′-biphenyl-4-yl}-1H-pyrazole-3-carboxamide]

biological target: T2, Rat IKK-2 (Rattus norvegicus, UniProt Q9QY78); experiment: Rat IKK-2 enzyme assay; format: biochemical; conditions: read-out: IC50 (μM) rIKK-2
T2 sequence (Q9QY78 1-757): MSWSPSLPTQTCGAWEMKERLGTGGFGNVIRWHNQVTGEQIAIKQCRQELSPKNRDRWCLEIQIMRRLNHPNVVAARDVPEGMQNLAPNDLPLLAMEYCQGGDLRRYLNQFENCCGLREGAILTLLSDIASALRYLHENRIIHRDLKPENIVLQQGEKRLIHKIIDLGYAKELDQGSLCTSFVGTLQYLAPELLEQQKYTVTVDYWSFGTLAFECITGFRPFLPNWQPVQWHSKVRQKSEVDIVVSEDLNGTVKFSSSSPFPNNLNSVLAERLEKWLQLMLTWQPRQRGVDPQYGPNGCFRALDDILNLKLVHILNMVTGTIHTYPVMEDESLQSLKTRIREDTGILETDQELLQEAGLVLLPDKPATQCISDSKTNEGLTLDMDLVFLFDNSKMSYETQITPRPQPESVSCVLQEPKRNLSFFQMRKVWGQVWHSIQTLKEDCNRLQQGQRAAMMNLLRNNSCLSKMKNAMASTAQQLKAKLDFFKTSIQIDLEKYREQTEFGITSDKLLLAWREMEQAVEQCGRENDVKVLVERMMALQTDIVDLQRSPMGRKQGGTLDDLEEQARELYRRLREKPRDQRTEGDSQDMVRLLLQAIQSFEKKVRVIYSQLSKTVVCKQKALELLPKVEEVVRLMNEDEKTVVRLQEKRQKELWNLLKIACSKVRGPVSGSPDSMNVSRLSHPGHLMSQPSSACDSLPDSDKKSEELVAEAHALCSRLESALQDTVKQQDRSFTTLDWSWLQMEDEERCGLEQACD
Description: Kinase activity was measured using a biotinylated […] peptide (Gly-Leu-Lys-Lys-Glu-Arg-Leu-Leu-Asp-Asp-Arg-His-Asp-Ser32-Gly-Leu-Asp-Ser36-Met-Lys-Asp-Glu-Glu) (American Peptide Co.). 20 μL of the standard reaction mixture contained 5 μM biotinylated IκBα peptide, 0.1 μCi/reaction [γ-^33P] ATP (Amersham) (about 1×10^5 cpm), 1 μM ATP (Sigma), 1 mM DTT (Sigma), 2 mM MgCl2 (Sigma), 2 mM MnCl2 (Sigma), 10 mM NaF (Sigma), 25 mM Hepes (Sigma) buffer, pH. 7.6 and 20 μL enzyme solution (50 nM/rxn or 200 ng/rxn) and 10 μL inhibitor in a final volume of 50 μL. After incubation at 25° C. for 60 min, 150 μL resin was added to each well to stop the reaction. Resin was mixed and allowed to settle for 1 h and 50 μL of supernatant was removed to a Micolite 2 flat bottom plate (Dynex). 150 μL of scintillation fluid (Microscint 40) (Packard) was added to each well. Incorporation of [γ-^33P] ATP was measured using a Top-Count NXT (Packard).

IC50 [µM] | SMILES
0.482 | NC(=O)Nc1cn(-c2ccc(-c3cc(F)ccc3O)c(F)c2)nc1C(N)=O [Example 263, 4-[(aminocarbonyl)amino]-1-(2,5′-difluoro-2′-hydroxy-1,1′-biphenyl-4-yl)-1H-pyrazole-3-carboxamide]
0.17 | NC(=O)Nc1cn(-c2ccc(-c3ccc(O)cc3)c(F)c2)nc1C(N)=O [Example 264, 4-[(aminocarbonyl)amino]-1-(2-fluoro-4′-hydroxy-1,1′-biphenyl-4-yl)-1H-pyrazole-3-carboxamide]
6.16 | NC(=O)Nc1cn(-c2ccc(-c3ccc(O)c(F)c3)c(F)c2)nc1C(N)=O [Example 265, 4-[(aminocarbonyl)amino]-1-(2,3′-difluoro-4′-hydroxy-1,1′-biphenyl-4-yl)-1H-pyrazole-3-carboxamide]
0.392 | NC(=O)COc1ccccc1-c1ccc(-n2cc(NC(N)=O)c(C(N)=O)n2)cc1F [Example 266, 4-[(aminocarbonyl)amino]-1-[2′-(2-amino-2-oxoethoxy)-2-fluoro-1,1′-biphenyl-4-yl]-1H-pyrazole-3-carboxamide]
2.75 | COc1ccccc1-c1ccc(-n2cc(NC(N)=O)c(C(N)=O)n2)cc1F [Example 267, 4-[(aminocarbonyl)amino]-1-(2-fluoro-2′-methoxy-1,1′-biphenyl-4-yl)-1H-pyrazole-3-carboxamide]
0.175 | NC(=O)COc1cc(F)ccc1-c1ccc(-n2cc(NC(N)=O)c(C(N)=O)n2)cc1F [Example 268, 4-[(aminocarbonyl)amino]-1-[2′-(2-amino-2-oxoethoxy)-2,4′-difluoro-1,1′-biphenyl-4-yl]-1H-pyrazole-3-carboxamide]
0.781 | COc1ccc(F)cc1-c1ccc(-n2cc(NC(N)=O)c(C(N)=O)n2)cc1F [Example 269, 4-[(aminocarbonyl)amino]-1-(2,5′-difluoro-2′-methoxy-1,1′-biphenyl-4-yl)-1H-pyrazole-3-carboxamide]
0.956 | NC(=O)Nc1cn(-c2ccc(S(=O)(=O)c3ccccc3F)c(Cl)c2)nc1C(N)=O [Example 271, 4-[(aminocarbonyl)amino]-1-{3-chloro-4-[(2-fluorophenyl)sulfonyl]phenyl}-1H-pyrazole-3-carboxamide]
0.167 | NC(=O)Nc1cn(-c2ccc(-c3ccc(O)cc3)c(Cl)c2)nc1C(N)=O [Example 272, 4-[(aminocarbonyl)amino]-1-(2-chloro-4′-hydroxy-1,1′-biphenyl-4-yl)-1H-pyrazole-3-carboxamide]
0.203 | NC(=O)Nc1cn(-c2cccc(Cl)c2F)nc1C(N)=O [Example 273, 1-(3-chloro-2-fluoro-phenyl)-4-ureido-1 h-pyrazole-3-carboxylic acid amide]
10.8 | CCOc1cc(-n2cc(NC(N)=O)c(C(N)=O)n2)ccc1-c1ccc(OCC(N)=O)cc1 [Example 275, 4-[(aminocarbonyl)amino]-1-[4′-(2-amino-2-oxoethoxy)-2-ethoxy-1,1′-biphenyl-4-yl]-1H-pyrazole-3-carboxamide]
0.194 | NC(=O)Nc1cn(-c2ccc(Br)c(O)c2)nc1C(N)=O [Example 276, 4-[(aminocarbonyl)amino]-1-(4-bromo-3-hydroxyphenyl)-1H-pyrazole-3-carboxamide]
4.16 | Cc1cccc(Sc2ccc(-n3cc(NC(N)=O)c(C(N)=O)n3)cc2)c1 [Example 292, 1-(1-(4-(m-tolylthio)phenyl)-3-carbamoyl-1H-pyrazol-4-yl)urea]
4.82 | NC(=O)Nc1cn(-c2ccc(Sc3cccc(Br)c3)cc2)nc1C(N)=O [Example 293, 1-(1-(4-(3-bromophenylthio)phenyl)-3-carbamoyl-1H-pyrazol-4-yl)urea]
0.237 | NC(=O)Nc1cn(-c2ccc([S+]([O-])c3ccncc3)cc2)nc1C(N)=O (centres unmarked) [Example 294, 1-(3-carbamoyl-1-(4-(pyridin-4-ylsulfinyl)phenyl)-1H-pyrazol-4-yl)urea]
0.0369 | NC(=O)Nc1cn(-c2ccc(S(=O)(=O)c3ccncc3)cc2)nc1C(N)=O [Example 295, 1-(3-carbamoyl-1-(4-(pyridin-4-ylsulfonyl)phenyl)-1H-pyrazol-4-yl)urea]
0.378 | NC(=O)Nc1cn(-c2cccc(O)c2)nc1C(N)=O [Example 300, 1-(3-hydroxy-phenyl)-4-ureido-1H-pyrazole-3-carboxylic acid amide]
0.547 | Cc1cc(-n2cc(NC(N)=O)c(C(N)=O)n2)ccc1F [Example 304, 4-[(aminocarbonyl)amino]-1-(4-fluoro-3-methylphenyl)-1H-pyrazole-3-carboxamide]
0.098 | CCCc1ccc(-n2cc(NC(N)=O)c(C(N)=O)n2)cc1 [Example 305, 4-[(aminocarbonyl)amino]-1-(4-propylphenyl)-1H-pyrazole-3-carboxamide]
0.766 | CCCOc1ccc(-n2cc(NC(N)=O)c(C(N)=O)n2)cc1C [Example 306, 4-[(aminocarbonyl)amino]-1-(3-methyl-4-propoxyphenyl)-1H-pyrazole-3-carboxamide]
6.44 | Cc1cc(-n2cc(NC(N)=O)c(C(N)=O)n2)ccc1OCc1ccccc1 [Example 307, 4-[(aminocarbonyl)amino]-1-[4-(benzyloxy)-3-methylphenyl]-1H-pyrazole-3-carboxamide]
0.099 | Cc1cc(-n2cc(NC(N)=O)c(C(N)=O)n2)ccc1-c1ccc(O)cc1 [Example 308, 1-(4′-hydroxy-2-methyl-biphenyl-4-yl)-4-ureido-1H-pyrazole-3-carboxylic acid amide]
0.086 | Cc1cc(O)ccc1-c1ccc(-n2cc(NC(N)=O)c(C(N)=O)n2)cc1C [Example 309, 1-(4′-hydroxy-2,2′-dimethyl-biphenyl-4-yl)-4-ureido-1H-pyrazole-3-carboxylic acid amide]
0.095 | Cc1cc(-n2cc(NC(N)=O)c(C(N)=O)n2)ccc1-c1ccc(O)c(F)c1 [Example 310, 1-(3′-fluoro-4′-hydroxy-2-methyl-biphenyl-4-yl)-4-ureido-1H-pyrazole-3-carboxylic acid amide]
2.33 | Cc1cc(-n2cc(NC(N)=O)c(C(N)=O)n2)ccc1Sc1cccc(F)c1 [Example 311, 1-[4-(3-fluoro-phenylsulfanyl)-3-methyl-phenyl]-4-ureido-1H-pyrazole-3-carboxylic acid amide]
